Assay results from BindingDB's records for doi:10.1074/jbc.M112.380782 (French Alternative Energies and Atomic Energy Commission, 2012).
pIC50, pKi: −log10 of the molar value.

Legend:
Assay in all cases: Enzyme Assay
[1] = target: 72 kDa type IV collagenase (Homo sapiens, UniProt P08253); conditions: pH 6.8; 25 °C
Collagenase 3 = Collagenase 3 (Homo sapiens, UniProt P45452); conditions: pH 6.8; 25 °C
Interstitial collagenase = target: T1, Interstitial collagenase (Homo sapiens, UniProt P03956); conditions: pH 6.8; 25 °C
T1 sequence (P03956 whole entry): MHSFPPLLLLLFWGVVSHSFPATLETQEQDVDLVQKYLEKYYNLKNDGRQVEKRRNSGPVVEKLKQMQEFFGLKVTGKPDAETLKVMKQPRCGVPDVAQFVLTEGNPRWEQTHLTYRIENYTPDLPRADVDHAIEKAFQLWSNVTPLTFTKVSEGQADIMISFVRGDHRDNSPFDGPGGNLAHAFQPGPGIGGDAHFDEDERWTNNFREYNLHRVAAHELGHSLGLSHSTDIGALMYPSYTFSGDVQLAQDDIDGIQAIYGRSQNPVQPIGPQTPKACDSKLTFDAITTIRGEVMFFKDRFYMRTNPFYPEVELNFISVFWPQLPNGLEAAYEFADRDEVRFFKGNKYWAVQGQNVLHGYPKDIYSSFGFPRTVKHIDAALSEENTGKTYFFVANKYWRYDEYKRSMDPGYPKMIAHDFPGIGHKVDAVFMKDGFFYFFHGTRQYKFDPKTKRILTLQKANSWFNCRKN

Matrilysin = target: T2, Matrilysin (Homo sapiens, UniProt P09237); conditions: pH 6.8; 25 °C
T2 sequence (P09237 whole entry): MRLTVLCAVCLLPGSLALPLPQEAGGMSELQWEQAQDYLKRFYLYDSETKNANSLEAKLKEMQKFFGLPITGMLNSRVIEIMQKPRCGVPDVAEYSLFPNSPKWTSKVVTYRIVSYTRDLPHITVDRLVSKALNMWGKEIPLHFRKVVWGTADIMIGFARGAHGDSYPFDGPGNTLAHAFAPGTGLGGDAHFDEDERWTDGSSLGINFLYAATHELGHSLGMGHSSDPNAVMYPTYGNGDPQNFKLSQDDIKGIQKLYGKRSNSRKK

[2] = target: Matrix metalloproteinase-14 (Homo sapiens, UniProt P50281); conditions: pH 6.8; 25 °C
[3] = target: Matrix metalloproteinase-9 (Homo sapiens, UniProt P14780); conditions: pH 6.8; 25 °C
Sequence of Matrix metalloproteinase-9 (P14780 whole entry): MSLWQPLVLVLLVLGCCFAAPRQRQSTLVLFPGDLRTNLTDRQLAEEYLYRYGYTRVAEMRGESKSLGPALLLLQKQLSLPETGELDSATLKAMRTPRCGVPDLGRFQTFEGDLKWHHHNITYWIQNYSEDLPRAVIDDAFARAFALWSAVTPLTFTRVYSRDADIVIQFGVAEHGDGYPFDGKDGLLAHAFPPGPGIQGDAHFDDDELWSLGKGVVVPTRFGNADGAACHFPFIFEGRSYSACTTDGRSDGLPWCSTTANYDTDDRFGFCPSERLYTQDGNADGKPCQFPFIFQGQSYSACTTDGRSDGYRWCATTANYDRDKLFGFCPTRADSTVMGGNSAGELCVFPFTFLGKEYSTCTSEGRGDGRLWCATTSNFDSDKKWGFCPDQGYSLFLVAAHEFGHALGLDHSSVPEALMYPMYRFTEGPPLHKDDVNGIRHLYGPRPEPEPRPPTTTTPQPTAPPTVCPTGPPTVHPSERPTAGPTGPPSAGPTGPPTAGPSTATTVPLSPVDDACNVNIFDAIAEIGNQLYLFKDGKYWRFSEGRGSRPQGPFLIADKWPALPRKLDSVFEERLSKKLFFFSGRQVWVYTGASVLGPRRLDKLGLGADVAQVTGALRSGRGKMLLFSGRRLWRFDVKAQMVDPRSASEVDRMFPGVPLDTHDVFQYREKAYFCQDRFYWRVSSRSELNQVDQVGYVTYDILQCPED

Neutrophil collagenase = Neutrophil collagenase (Homo sapiens, UniProt P22894); conditions: pH 6.8; 25 °C
Sequence of Neutrophil collagenase (P22894 whole entry): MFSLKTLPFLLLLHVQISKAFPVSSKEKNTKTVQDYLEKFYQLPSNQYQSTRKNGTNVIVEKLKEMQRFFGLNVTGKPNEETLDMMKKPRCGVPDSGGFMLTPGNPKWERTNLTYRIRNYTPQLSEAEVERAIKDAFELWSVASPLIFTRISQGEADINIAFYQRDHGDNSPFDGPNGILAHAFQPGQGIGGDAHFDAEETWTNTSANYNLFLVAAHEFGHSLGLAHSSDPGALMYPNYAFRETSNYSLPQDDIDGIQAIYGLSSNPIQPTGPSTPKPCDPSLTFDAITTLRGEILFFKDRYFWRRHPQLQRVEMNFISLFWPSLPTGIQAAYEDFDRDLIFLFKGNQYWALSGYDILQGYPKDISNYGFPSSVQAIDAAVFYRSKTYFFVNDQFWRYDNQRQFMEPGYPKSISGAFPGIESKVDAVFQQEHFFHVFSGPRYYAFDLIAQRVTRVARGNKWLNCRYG

Stromelysin-1 = Stromelysin-1 (Homo sapiens, UniProt P08254); conditions: pH 6.8; 25 °C
Sequence of Stromelysin-1 (P08254 whole entry): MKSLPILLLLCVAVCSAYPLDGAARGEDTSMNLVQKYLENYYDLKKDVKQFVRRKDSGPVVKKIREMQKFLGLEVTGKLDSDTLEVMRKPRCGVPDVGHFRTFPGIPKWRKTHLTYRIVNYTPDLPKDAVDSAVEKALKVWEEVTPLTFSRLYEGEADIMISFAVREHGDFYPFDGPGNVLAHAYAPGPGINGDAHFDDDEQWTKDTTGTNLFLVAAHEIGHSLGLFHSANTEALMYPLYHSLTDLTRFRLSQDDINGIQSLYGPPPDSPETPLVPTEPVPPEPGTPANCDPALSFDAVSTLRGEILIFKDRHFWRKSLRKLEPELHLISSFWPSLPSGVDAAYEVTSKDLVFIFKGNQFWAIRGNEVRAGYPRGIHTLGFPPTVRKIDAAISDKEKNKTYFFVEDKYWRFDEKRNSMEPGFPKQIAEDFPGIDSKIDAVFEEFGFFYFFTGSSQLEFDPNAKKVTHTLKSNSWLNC

[4] = target: T3, A disintegrin and metalloproteinase with thrombospondin motifs 5 (Homo sapiens, UniProt Q9UNA0); conditions: pH 6.8; 37 °C
T3 sequence (Q9UNA0 whole entry): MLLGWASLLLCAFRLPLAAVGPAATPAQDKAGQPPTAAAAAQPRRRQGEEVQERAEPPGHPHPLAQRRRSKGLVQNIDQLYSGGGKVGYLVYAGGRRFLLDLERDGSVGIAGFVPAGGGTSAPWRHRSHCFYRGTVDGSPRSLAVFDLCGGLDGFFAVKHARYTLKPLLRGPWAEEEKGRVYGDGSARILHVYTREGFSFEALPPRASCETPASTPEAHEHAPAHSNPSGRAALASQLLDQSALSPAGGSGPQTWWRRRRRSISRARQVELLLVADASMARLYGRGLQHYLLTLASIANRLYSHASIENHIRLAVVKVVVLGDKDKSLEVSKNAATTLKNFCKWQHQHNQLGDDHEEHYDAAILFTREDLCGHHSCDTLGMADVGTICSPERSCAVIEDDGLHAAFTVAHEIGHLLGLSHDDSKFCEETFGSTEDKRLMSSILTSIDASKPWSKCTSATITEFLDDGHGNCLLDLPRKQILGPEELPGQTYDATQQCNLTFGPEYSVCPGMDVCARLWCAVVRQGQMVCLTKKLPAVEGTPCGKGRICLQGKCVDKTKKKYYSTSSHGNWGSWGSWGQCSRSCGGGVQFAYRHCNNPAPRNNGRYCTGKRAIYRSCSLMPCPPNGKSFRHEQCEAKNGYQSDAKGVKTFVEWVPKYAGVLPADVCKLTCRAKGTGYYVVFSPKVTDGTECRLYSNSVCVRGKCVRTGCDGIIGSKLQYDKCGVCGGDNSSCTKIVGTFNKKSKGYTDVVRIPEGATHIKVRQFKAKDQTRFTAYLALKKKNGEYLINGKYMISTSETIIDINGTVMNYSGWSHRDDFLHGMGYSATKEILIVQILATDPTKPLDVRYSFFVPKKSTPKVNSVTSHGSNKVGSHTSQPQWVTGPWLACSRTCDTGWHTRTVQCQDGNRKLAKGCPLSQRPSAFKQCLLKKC

[5] = target: Macrophage metalloelastase (Homo sapiens, UniProt P39900); conditions: pH 6.8; 25 °C
Sequence of Macrophage metalloelastase (P39900 whole entry): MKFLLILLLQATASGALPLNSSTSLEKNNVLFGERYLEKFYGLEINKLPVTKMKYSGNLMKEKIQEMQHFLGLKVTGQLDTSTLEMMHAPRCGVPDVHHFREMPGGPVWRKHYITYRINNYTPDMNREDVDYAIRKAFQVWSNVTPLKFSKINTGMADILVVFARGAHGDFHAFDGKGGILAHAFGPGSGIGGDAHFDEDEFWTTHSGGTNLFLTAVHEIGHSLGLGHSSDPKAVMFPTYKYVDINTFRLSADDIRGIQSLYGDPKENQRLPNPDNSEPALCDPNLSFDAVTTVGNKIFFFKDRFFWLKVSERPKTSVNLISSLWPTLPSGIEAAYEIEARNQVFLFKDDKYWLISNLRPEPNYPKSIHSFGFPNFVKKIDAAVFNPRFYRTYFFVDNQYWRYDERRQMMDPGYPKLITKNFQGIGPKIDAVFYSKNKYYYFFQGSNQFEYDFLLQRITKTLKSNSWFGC

Stromelysin-2 = Stromelysin-2 (Homo sapiens, UniProt P09238); conditions: pH 6.8; 25 °C
Sequence of Stromelysin-2 (P09238 whole entry): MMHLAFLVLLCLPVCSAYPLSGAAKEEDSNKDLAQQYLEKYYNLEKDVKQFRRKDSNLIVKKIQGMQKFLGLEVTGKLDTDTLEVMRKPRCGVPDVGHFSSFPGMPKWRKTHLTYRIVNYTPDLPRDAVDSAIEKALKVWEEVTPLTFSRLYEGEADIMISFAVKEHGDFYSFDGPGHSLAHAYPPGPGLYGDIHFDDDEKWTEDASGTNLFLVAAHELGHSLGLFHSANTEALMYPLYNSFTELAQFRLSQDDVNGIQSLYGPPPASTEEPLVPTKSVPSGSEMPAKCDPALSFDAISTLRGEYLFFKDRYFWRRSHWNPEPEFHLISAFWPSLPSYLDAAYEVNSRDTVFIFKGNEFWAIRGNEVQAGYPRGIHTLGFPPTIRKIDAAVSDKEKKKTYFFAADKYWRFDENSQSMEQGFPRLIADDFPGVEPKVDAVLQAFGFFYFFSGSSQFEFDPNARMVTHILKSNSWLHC

[6] = target: T4, A disintegrin and metalloproteinase with thrombospondin motifs 4 (Homo sapiens, UniProt O75173); conditions: pH 6.8; 25 °C
T4 sequence (O75173 whole entry): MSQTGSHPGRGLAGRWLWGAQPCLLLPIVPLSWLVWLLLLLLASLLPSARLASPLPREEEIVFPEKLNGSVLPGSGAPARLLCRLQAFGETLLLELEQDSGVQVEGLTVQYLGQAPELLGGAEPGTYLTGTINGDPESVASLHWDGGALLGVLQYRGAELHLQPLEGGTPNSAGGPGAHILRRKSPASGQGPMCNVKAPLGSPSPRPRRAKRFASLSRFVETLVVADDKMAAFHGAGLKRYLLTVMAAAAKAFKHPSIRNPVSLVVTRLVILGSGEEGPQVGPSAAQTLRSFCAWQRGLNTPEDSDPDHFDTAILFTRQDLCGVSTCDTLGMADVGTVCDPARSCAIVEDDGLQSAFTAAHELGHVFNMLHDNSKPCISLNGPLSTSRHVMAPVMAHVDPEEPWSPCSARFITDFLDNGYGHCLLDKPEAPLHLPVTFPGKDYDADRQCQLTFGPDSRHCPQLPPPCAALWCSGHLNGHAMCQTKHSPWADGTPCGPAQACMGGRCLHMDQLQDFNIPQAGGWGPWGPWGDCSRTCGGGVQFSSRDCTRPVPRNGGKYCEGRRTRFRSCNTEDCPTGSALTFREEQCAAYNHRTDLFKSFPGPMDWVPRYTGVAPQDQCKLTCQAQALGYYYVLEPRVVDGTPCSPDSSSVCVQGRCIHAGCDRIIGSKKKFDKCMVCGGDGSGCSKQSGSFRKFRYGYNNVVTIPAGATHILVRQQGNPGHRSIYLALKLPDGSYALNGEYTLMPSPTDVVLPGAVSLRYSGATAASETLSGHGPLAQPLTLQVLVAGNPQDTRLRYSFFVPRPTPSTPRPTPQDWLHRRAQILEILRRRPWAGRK

Sequence of 72 kDa type IV collagenase (P08253 whole entry): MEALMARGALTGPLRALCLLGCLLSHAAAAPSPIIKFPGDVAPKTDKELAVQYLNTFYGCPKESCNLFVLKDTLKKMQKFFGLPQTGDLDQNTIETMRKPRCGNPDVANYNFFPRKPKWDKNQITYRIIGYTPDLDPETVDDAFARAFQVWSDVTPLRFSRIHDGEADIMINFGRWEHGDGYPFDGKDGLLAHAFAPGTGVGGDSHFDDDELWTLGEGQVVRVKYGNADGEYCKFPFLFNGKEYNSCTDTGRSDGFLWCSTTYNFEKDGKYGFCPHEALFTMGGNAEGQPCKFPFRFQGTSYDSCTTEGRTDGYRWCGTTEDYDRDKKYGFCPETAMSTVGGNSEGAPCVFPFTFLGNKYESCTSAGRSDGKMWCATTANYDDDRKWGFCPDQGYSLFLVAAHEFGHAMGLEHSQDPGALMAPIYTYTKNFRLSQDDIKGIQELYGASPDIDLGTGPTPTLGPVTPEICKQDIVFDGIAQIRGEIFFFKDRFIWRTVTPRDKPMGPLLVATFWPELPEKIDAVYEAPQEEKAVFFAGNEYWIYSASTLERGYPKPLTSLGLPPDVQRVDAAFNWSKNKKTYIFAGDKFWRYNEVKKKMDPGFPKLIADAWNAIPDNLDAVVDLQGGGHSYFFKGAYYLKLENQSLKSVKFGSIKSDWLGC

SMILES | pIC50 [1] | pIC50 (Collagenase 3) | pIC50 (Interstitial collagenase) | pIC50 (Matrilysin) | pIC50 [2] | pIC50 [3] | pIC50 (Neutrophil collagenase) | pIC50 (Stromelysin-1) | pKi [1] | pKi [4] | pKi [5] | pKi [2] | pKi [3] | pKi (Stromelysin-1) | pKi (Stromelysin-2) | pKi (Collagenase 3) | pKi (Interstitial collagenase) | pKi (Neutrophil collagenase) | pKi [6]
CC(C)C(NS(=O)(=O)c1ccc2c(c1)oc1ccc(N3CCOC3=O)cc12)C(=O)O (stereo unspecified) [MMP Inhibitor, 2] | 7.18 | 7.34 | < 5.70 | < 5.70 | < 5.70 | < 6.52 | 7.43 | < 6.52 | – | – | – | – | – | – | – | – | – | – | –
NC(=O)[C@H](CCC(=O)O)NC(=O)CCc1ccc(-c2ccc(-c3ccccc3)s2)cc1 [Inhibitor, 19] | – | – | – | – | – | – | – | – | 6.23 | 6.23 | 8.54 | < 5.00 | 5.88 | 6.48 | 6.45 | – | – | – | –
NC(=O)[C@H](CCC(=O)O)NC(=O)c1ccc(-c2cc(-c3ccccc3)cs2)cc1 [Inhibitor, 16] | – | – | – | – | – | – | – | – | 6.90 | 6.06 | 8.60 | 6.01 | 5.65 | 5.24 | 6.52 | 6.30 | – | – | –
O=C(NCc1ccc(F)c(Cl)c1)c1cc(C(=O)NCC23CCC(C(=O)O)(CC2)CC3)n2nccc2n1 [MMP Inhibitor, 6] | – | 7.48 | – | – | – | – | – | – | – | – | – | – | – | – | – | – | – | – | –
NC(=O)[C@H](CCC(=O)O)NC(=O)CCc1ccc(-c2cc(-c3ccccc3)cs2)cc1 [US8691753, 105] | – | – | – | – | – | – | – | – | – | 5.38 | 8.44 | 5.52 | 5.58 | 5.52 | 5.51 | – | – | – | –
NC(=O)[C@@H](CCC(=O)O)NC(=O)[C@H](CCC(=O)O)NC(=O)C(Cc1cc(-c2ccc(-c3cccc(Cl)c3)cc2)no1)CP(=O)(O)c1ccc(Br)cc1 (stereo partly specified) [RXP470, Compound 4] | – | – | – | – | – | – | – | – | < 7.00 | – | 9.70 | < 7.00 | < 7.00 | – | 8.10 | – | < 6.00 | < 7.00 | –
Cc1ccc(-c2ccc(CCC(=O)N[C@@H](CCC(=O)O)C(N)=O)cc2)s1 [Inhibitor, 17] | – | – | – | – | – | – | – | – | 7.24 | 5.49 | 8.48 | 5.63 | 7.04 | 5.66 | 6.41 | 6.47 | – | 8.28 | < 5.00
NC(=O)[C@H](CCC(=O)O)NC(=O)CCc1ccc(-c2ccc(-c3ccccc3)cc2)cc1 [Inhibitor, 18] | – | – | – | – | – | – | – | – | 7.33 | 5.24 | 8.48 | 5.98 | 5.66 | 6.99 | 7.27 | 7.74 | – | 6.69 | –
